Literature values in patent publication US20070281910A1, “Salicyl alcohol creatine phosphate prodrugs, compositions and uses thereof” (XenoPort, Inc., priority 2006, published 2007).
Read-outs that look alike come from different tables or passages of the source.

Columns and labels:
[1] = animals fed a diet containing up to 1%
[2] = not given; remark: listed apart in the source

CN(CC(=O)O)C(=N)N.O [creatine monohydrate]
adverse side effects (athletes and body builders, 2-3 gm/day): without adverse side effects

NC1=NCCN1CC(=O)O [cyclocreatine]
adverse effects [1]: do not exhibit adverse effects

CN(CC(=O)O)C(=N)N [creatine]
overall increase of creatine phosphate levels ([2]; creatine supplementation over weeks): < 50%
duration of increase in tissue creatine phosphate levels ([2]; following oral creatine supplementation): > 14 days
increase of cerebral creatine phosphate ([2]; healthy volunteers, oral creatine administration): about 10%

CN(CC(=O)O)C(=N)NP(=O)(O)O [Creatine phosphate, creatine phosphate]
adverse side effects (patients with cardiac diseases, intravenous injection up to 8 gm/day): without adverse side effects
